Molecules are shown by their SMILES. Some results are limits rather than exact numbers.

By IC50 is commonly meant the concentration needed to halve the response being measured. Usually viability, T/C stands for the result in the treated group divided by that in the control group, in per cent.

The test concerns 855422-203-R-J1-PDC spheroids with HUVEC/MSC, viability. Description: Anticancer human tumor 855422-203-R-J1-PDC patient-derived bladder carcinoma cell line growth inhibition [PI3K]. The note with it: for viability, T/C: stronger effect = lower value. A digest of the protocol: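 High-throughput combination screen: PI3K inhibitors crossed with targeted small molecules on complex spheroids of tumor cells, HUVEC and MSCs at 37 degrees C, 5% CO2. Top concentration was at or near clinical Cmax (otherwise 10 microM), with half-log decrements.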
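Further: agents incubated with spheroids for one week before read-out.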
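Wherever viability, T/C is given: 100% = DMSO vehicle-treated control wells.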

With `CNC(=O)c1ccc(N2C(=S)N(c3ccc(C#N)c(C(F)(F)F)c3)C(=O)C2(C)C)cc1F` + CC(Nc1ccc2c(c1)OCCn1cc(N3C(=O)OCC3C(F)F)nc1-2)C(N)=O, the IC50 was over 10 µM (curve of first compound, second compound 0.00316 µM); over 10 µM (curve of first compound, second compound 0.01 µM); over 10 µM (curve of first compound, second compound 0.0316 µM); over 10 µM (curve of first compound, second compound 0.1 µM); 0.265 µM (curve of first compound, second compound 0.316 µM); under 0.0316 µM (curve of first compound, second compound 1 µM). Further, the viability, T/C reads like this: (second compound 0.00316 µM, first compound 0.0316 µM) 106%; (second compound 0.00316 µM, first compound 0.1 µM) 83.8%; (second compound 0.00316 µM, first compound 0.316 µM) 95.8%; (second compound 0.00316 µM, first compound 1 µM) 81.2%; (second compound 0.00316 µM, first compound 3.16 µM) 72.9%; (second compound 0.00316 µM, first compound 10 µM) 65.4%. In addition, the viability, T/C is 102% (second compound 0.01 µM, first compound 0.0316 µM); 91.2% (second compound 0.01 µM, first compound 0.1 µM); 90% (second compound 0.01 µM, first compound 0.316 µM); 77.3% (second compound 0.01 µM, first compound 1 µM); 79% (second compound 0.01 µM, first compound 3.16 µM); 72.5% (second compound 0.01 µM, first compound 10 µM). The viability, T/C (second compound 0.0316 µM, first compound 0.0316 µM) was 86.6%; the viability, T/C (second compound 0.0316 µM, first compound 0.1 µM) is 82.1%; the viability, T/C (second compound 0.0316 µM, first compound 0.316 µM) is 79.9%; the viability, T/C (second compound 0.0316 µM, first compound 1 µM) is 66.6%; the viability, T/C (second compound 0.0316 µM, first compound 3.16 µM) was 72.8%; the viability, T/C (second compound 0.0316 µM, first compound 10 µM) was 64.3%. Further, the viability, T/C runs as follows: (second compound 0.1 µM, first compound 0.0316 µM) 76.9%; (second compound 0.1 µM, first compound 0.1 µM) 76.7%; (second compound 0.1 µM, first compound 0.316 µM) 83.3%; (second compound 0.1 µM, first compound 1 µM) 63.1%; (second compound 0.1 µM, first compound 3.16 µM) 62%; (second compound 0.1 µM, first compound 10 µM) 52.8%. For the same compound, the viability, T/C was 51.4% (second compound 0.316 µM, first compound 0.0316 µM); 46.9% (second compound 0.316 µM, first compound 0.1 µM); 53.6% (second compound 0.316 µM, first compound 0.316 µM); 49.1% (second compound 0.316 µM, first compound 1 µM); 52.7% (second compound 0.316 µM, first compound 3.16 µM); 43.1% (second compound 0.316 µM, first compound 10 µM). For the same compound, the viability, T/C by setting is: (second compound 1 µM, first compound 0.0316 µM) 37.2%; (second compound 1 µM, first compound 0.1 µM) 36.4%; (second compound 1 µM, first compound 0.316 µM) 37%; (second compound 1 µM, first compound 1 µM) 41.3%; (second compound 1 µM, first compound 3.16 µM) 38.5%; (second compound 1 µM, first compound 10 µM) 33.8%.

Consider `C[C@@H](NC(=O)c1ncnc(N)c1Cl)c1ncc(C(=O)Nc2cc(C(F)(F)F)c(Cl)cn2)s1`, for which the viability, T/C reads like this: (compound 0.0316 µM) 107% [middle of 4 runs]; (compound 0.1 µM) 99.5% [middle of 4 runs]; (compound 0.316 µM) 118% [middle of 4 runs]; (compound 3.16 µM) 122% [middle of 4 runs]; (compound 10 µM) 120% [middle of 4 runs]. For the same compound, the IC50 (curve of compound) was over 10 µM.

These data come from PubChem BioAssay AID1963967 (Molecular Pharmacology Branch, DTP, NCI, 2024).
